Test [1] has as its system ABCF1. The experiment in a line: Escitalopram induction of ABCF1 in RAW macrophages, real time RT-PCR. The test is classed as cell-based. Here is the method: (§1) FIG. 1—illustrates that Escitalopram induces ABCF1 in a Macrophage cell line: RAW macrophages were plated at 1×10^5 cells/well and cultured for 2 days. The cells were incubated with 0.3 mM Escitalopram for 1 hour, and then harvested for total RNA, which was extracted for real time RT-PCR specific for ABCF1 and IL-4. CT values were normalized with CT value for the housekeeping gene from the DMSO control. The difference in the expression after drug treatment is consistent with polarization towards an M2-like phenotype (data were consistent in 3 separate experiments).
(§2) Additionally, noradrenergic or serotonin-norepinephrine reuptake inhibitors used to treat major depressive disorder have anti-inflammatory properties in vitro^55. […] Mechanistically, antidepressants likely mediate this through a reduction in pro-inflammatory cytokines IL-1b, TNFα, and IL-6 with a reciprocal increase in anti-inflammatory cytokines including […]. Studies have also shown that single nucleotide polymorphisms in IL-6 and IL-11, and mRNA levels of TNFα, are predictive of clinical response to the SSRI, escitalopram^63,64. Also, escitalopram modulates mRNA levels of cytokines in mouse brain^65 and decreases cytokine mRNA levels in the circulating immune cells of depression patients^60. […]
(In general: Real-time PCR tracks product formation cycle by cycle.)

Test [2] deals with ABCF1. The following applies: peripheral blood mononuclear cells of patients responding to escitalopram treatment; cited from earlier work.
For test [3], the system named is IL-4. The experiment in a line: Escitalopram induction of IL-4 in RAW macrophages, real time RT-PCR. The following applies: RAW macrophage cell line, 0.3 mM Escitalopram, 1 hour, normalized to housekeeping gene, vs DMSO control (FIG. 1). Format: cell-based. How it is done: as §1, §2
In test [4] the test system is ABCF1. The experiment in a line: Effect of psylocibin, psylocin and analogs on ABCF1 transcription in RAW264.7, qPCR. Format: cell-based. The following applies: RAW264.7, 10 nM, 100 nM, 500 nM, normalized against GAPDH (FIG. 2). Here is the method:
FIG. 2—illustrates the effect of psylocibin, psylocin and their analogs on ABCF1 transcription in a macrophage cell line. Briefly, the Macrophage cell line RAW264.7 (ATCC) were grown to 80% confluency in growth media (DMEM+ 10% FBS+ glutamine). Dilutions of psylocibin, psylocin and their analogs were made at desired final concentrations for a Dose response experiment. The concentrations' used for this experiment are: 10 nM, 100 nM, 500 nM for Psilocin, Psylocibin, 4-Acetoxy-N, N-dimthyltryptamine, O-Acetyl Psilocin Fumerate, and 4-acetoxyindole. The cells were incubated for 2 hours and then harvested for total RNA, which was extracted for real time RT-PCR specific for ABCF1. Untreated cells were used as negative control and Escitalopram at 0.3 mM was used as a positive control to activate ABCF1 expression for all the experiments. ES=escitalopram; PSYB=Psylocibin; PSIC=Psilocin; DMT=4-Acetoxy-N, N-dimthyltryptamine; APF=O-Acetyl Psilocin Fumerate, and AOI=4-acetoxyindole.
Preparation of Cells: • 1. Macrophage cell line RAW264.7 (ATCC) were grown to 80% confluency in growth media (DMEM+10% FBS+glutamine). • 2. Dilutions of the drugs were made at desired final concentrations for a Dose response experiment. […]
• 1. […] Normalized against the expression level of GAPDH, the fold change expression level of ABCF1 was calculated and tabulated for all treatment conditions.

On to `CN(C)CCC[C@@]1(c2ccc(F)cc2)OCc2cc(C#N)ccc21` [Escitalopram], for which the “induction of ABCF1 expression” value in test [1] (RAW macrophage cell line, 0.3 mM Escitalopram, 1 hour, normalized to housekeeping gene, vs DMSO control (FIG. 1)) is “approximately 20 fold”. In addition, in test [1] (RAW macrophages, 0.3 mM, 1 hour (FIG. 1 legend)), the “ABCF1 induction in a macrophage cell line (in words)” value is given as “induces ABCF1”. Moreover, the “transcription of ABCF1 in PBMCs” value in test [2] is on record as “increased the transcription”. Also, the “induction of IL-4 expression” value in test [3] was “approximately 5 fold”.
As for `CN(C)CCc1c[nH]c2cccc(O)c12` [psylocin, 4-hydroxy-N,N-dimethyltryptamine], the “ABCF1 transcription (in words)” value in test [4] is listed as “upregulate ABCF1 transcription”.

Source of the values: patent US20230405026A1, “A Method of Treating Depression by Immune Modulation” (Mynd Life Sciences Inc., priority 2020, published 2023).
